According to ChEMBL document CHEMBL1201862, “PubChem BioAssay data set” (2004):
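Following 48 hours of exposure in 96-well plates, responses at five concentrations were used to interpolate endpoints linearly. The concentration for 50% growth inhibition is given as GI50.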 The source made the active and inactive calls. Cut-off read from the data, not from the text of the source: active = GI50 up to about 1.1 µM and inactive = higher.

Assays:
Assay in all cases: inhibition of tumour cell growth, NCI panel, 48 h
[1] = tested on: BT-549
[2] = tested on: DU-145
[3] = tested on: HCT-116
[4] = tested on: HT-29
[5] = tested on: Hs-578T
[6] = tested on: K562
[7] = tested on: KM12
[8] = tested on: NCI-H226
[9] = tested on: NCI-H522
[10] = tested on: OVCAR-8
[11] = tested on: SF-268
[12] = tested on: SK-MEL-2
[13] = tested on: SK-MEL-5
[14] = tested on: SN12C
[15] = tested on: UACC-257
[16] = tested on: UO-31
[17] = tested on: A498
[18] = tested on: CAKI-1
[19] = tested on: PC-3
[20] = tested on: SNB-75

Measured: GI50

[O-][S+](Nc1ccccc1)c1ccc(Cl)c(Cl)c1 (stereo unspecified)
inactive: [1] 17 µM | [2] 69.8 µM | [3] 33.1 µM | [4] > 100 µM | [5] 24.5 µM | [6] 39.9 µM | [7] 14.7 µM | [8] 51.1 µM | [9] 21.9 µM | [10] 66.4 µM | [11] 26.4 µM | [12] 33.3 µM | [13] 23.4 µM | [14] > 100 µM | [15] 62.2 µM | [16] 52 µM

O=S(=O)(/N=C(\NO)Nc1ccc(Cl)cc1)C1CC=C(c2ccon2)S1 (stereo unspecified)
inactive: [17] 7.24 µM | [1] 12.3 µM | [18] 2.39 µM | [2] 55.3 µM | [3] 15.6 µM | [4] 42.7 µM | [5] 14.7 µM | [6] 7.1 µM | [7] 46.5 µM | [8] 13.4 µM | [9] 1.13 µM | [10] 8.77 µM | [19] 14.8 µM | [11] 14.7 µM | [12] 13.3 µM | [13] 20.4 µM | [14] 18.2 µM | [15] 12.5 µM | [16] 9.55 µM

O=C(c1ccccc1)c1ccc2[nH]c(-c3c(Cl)c(Cl)c(Cl)c(Cl)c3C(=O)N/N=C/c3ccccc3)nc2c1
inactive: [1] 28.5 µM | [18] 34.1 µM | [2] 38 µM | [3] 32.1 µM | [4] 30.8 µM | [5] 37.7 µM | [6] 27.7 µM | [7] 28.2 µM | [8] 19.9 µM | [9] 18.1 µM | [10] 32.2 µM | [19] 24.1 µM | [11] 27.5 µM | [12] 21.6 µM | [13] 14.5 µM | [14] 18.9 µM | [20] 17.9 µM | [15] 23.3 µM | [16] 27.5 µM

Cc1csc2nc(-c3cc([N+](=O)[O-])c(Cl)cc3Cl)c(/C=N/N=C(N)N)n12
inactive: [17] 19.6 µM | [1] 14.6 µM | [18] 15.6 µM | [2] 16.7 µM | [3] 16.7 µM | [4] 16.1 µM | [5] 15.4 µM | [6] 6.53 µM | [7] 14.4 µM | [8] 18.5 µM | [9] 15.9 µM | [10] 19.2 µM | [19] 16.4 µM | [11] 16.5 µM | [12] 13.4 µM | [13] 16.1 µM | [14] 16.2 µM | [15] 17.8 µM | [16] 16 µM

COc1ccc(-n2sc3ncc([N+](=O)[O-])cc3c2=O)cc1
inactive: [1] > 100 µM | [2] > 100 µM | [3] > 100 µM | [4] > 100 µM | [5] 32.1 µM | [7] > 100 µM | [8] > 100 µM | [9] 34.4 µM | [10] > 100 µM | [19] > 100 µM | [11] > 100 µM | [12] > 100 µM | [13] > 100 µM | [14] > 100 µM | [20] > 100 µM | [15] > 100 µM | [16] > 100 µM

CCOC(=O)c1nc2ccc(C(F)(F)F)cc2nc1NCc1ccc(OC)c(OC)c1
inactive: [17] 58.2 µM | [1] 51.3 µM | [18] > 100 µM | [3] 39.2 µM | [4] 32.1 µM | [5] 42.8 µM | [6] 49.5 µM | [7] 55.5 µM | [8] 63.5 µM | [9] 30.6 µM | [10] 80.4 µM | [19] 35.5 µM | [11] 83.9 µM | [12] 24.2 µM | [13] 37.8 µM | [20] 21.9 µM | [15] 61.4 µM | [16] 60.7 µM

CCOC(=O)c1ccc(Nc2nc3cc(C(F)(F)F)ccc3nc2-c2ccccc2)cc1
inactive: [1] > 100 µM | [18] 42.9 µM | [2] > 100 µM | [3] 67.6 µM | [4] > 10 µM | [5] 36.1 µM | [6] > 100 µM | [7] 28.4 µM | [8] > 100 µM | [9] 37.6 µM | [10] 31.3 µM | [19] 22.2 µM | [11] > 100 µM | [13] 65 µM | [14] 86.1 µM | [20] 13.5 µM | [15] > 100 µM | [16] > 100 µM

COc1ccc(N2C(=O)C(=O)C3(CCCCC3)C2=O)c(OC)c1OC
inactive: [1] 34 µM | [18] > 100 µM | [2] > 100 µM | [3] > 100 µM | [4] > 100 µM | [5] > 100 µM | [7] > 100 µM | [8] > 100 µM | [9] > 100 µM | [10] > 100 µM | [19] > 100 µM | [11] > 100 µM | [13] > 100 µM | [14] > 100 µM | [20] > 100 µM | [15] > 100 µM | [16] > 100 µM

CCC(CON(C)c1ccccc1)(SC)SC
inactive: [1] > 100 µM | [18] > 100 µM | [2] 82.6 µM | [3] > 100 µM | [4] > 100 µM | [5] 80.2 µM | [7] > 100 µM | [8] > 100 µM | [9] > 100 µM | [10] > 100 µM | [19] > 100 µM | [11] > 100 µM | [12] 28.7 µM | [13] > 100 µM | [14] > 100 µM | [20] > 100 µM | [15] > 100 µM | [16] 95.1 µM

OCC1CCCCCCCCCCC12SCCCS2 (stereo unspecified)
inactive: [1] > 100 µM | [18] > 100 µM | [2] > 100 µM | [3] > 100 µM | [4] > 100 µM | [5] > 100 µM | [6] 48.2 µM | [7] > 100 µM | [8] > 100 µM | [9] > 100 µM | [19] 71 µM | [11] > 100 µM | [12] > 100 µM | [13] > 100 µM | [20] > 100 µM | [16] > 100 µM

CCOC(=O)/C(C#N)=C(/NS(=O)(=O)c1cc(C)c(Cl)cc1[S-])[n+]1ccc(N(C)C)cc1
inactive: [17] > 100 µM | [1] > 100 µM | [18] > 100 µM | [2] > 100 µM | [3] > 100 µM | [4] > 100 µM | [5] > 100 µM | [6] > 100 µM | [7] > 100 µM | [8] > 100 µM | [9] > 100 µM | [10] > 100 µM | [19] > 100 µM | [11] > 100 µM | [12] > 100 µM | [13] > 100 µM | [14] > 100 µM | [15] > 100 µM | [16] > 100 µM
